Data reported in patent publication US12115156B2, “Compositions of CXCR4 inhibitors and methods of preparation and use” (X4 Pharmaceuticals, Inc., priority 2018, dated 2024).
One block for each compound: values may come before it.

Columns and labels:
[1] = Persistence of the imine impurity HPLC-MS peak in acidic aqueous media; assay type: physicochemical; conditions: X4P-001 solubilized in acidic aqueous media
Text: The imine impurity, I-1, and likely route of formation are shown in Scheme 1, below.

[2] = Mutagenic Risk Assessment in accordance with ICH M7(R1); conditions: impurities in the synthetic process for X4P-001
Method: The assessment included review of all raw materials, including key starting materials, as well as the potential and actual process impurities and degradation products. All assessments were carried out in accordance with ICH M7(R1) guidance.

in vivo = conditions: terminal half-life
[3] = in vivo
[4] = tested on: advanced clear-cell renal cell carcinoma; conditions: cited from earlier work; for objective response rate: nivolumab 3 mg/kg intravenously every two weeks or everolimus 10 mg tablet orally daily, previously treated patients, P<0.001
[5] = nivolumab compared to everolimus

stability of the impurity peak (RRT 1.13) [1]: disappears after a few hours
Compound: C=NCCCCN(Cc1nc2ccccc2[nH]1)[C@H]1CCCc2cccnc21 [I-1, (S)-N-((1H-benzo[d]imidazol-2-yl)methyl)-N-(4-(methyleneamino)butyl)-5,6,7,8-tetrahydroquinolin-8-amine]

Compound: ClCc1nc2ccccc2[nH]1 [I-8, 2-chloromethylbenzimidazole]
mutagenicity assessment [2]: potentially mutagenic

Compound: CC(C)(C)OC(=O)n1c(CCl)nc2ccccc21 [I-9, boc-2-chloromethylbenzimidazole]
mutagenicity assessment [2]: potentially mutagenic

Compound: ICc1nc2ccccc2[nH]1 [I-10]
mutagenicity assessment [2]: potentially mutagenic

Compound: CC(C)(C)OC(=O)n1c(CI)nc2ccccc21 [I-11]
mutagenicity assessment [2]: potentially mutagenic

half-life (in vivo): 12 to 24 h
terminal half-life [3]: approximately 14.5 hrs
Compound: NCCCCN(Cc1nc2ccccc2[nH]1)[C@H]1CCCc2cccnc21 [X4P-001]

Compound: CO[C@H]1C[C@@H]2CC[C@@H](C)[C@@](O)(O2)C(=O)C(=O)N2CCCC[C@H]2C(=O)O[C@H]([C@H](C)C[C@@H]2CC[C@@H](OCCO)[C@H](OC)C2)CC(=O)[C@H](C)/C=C(\C)[C@@H](O)[C@@H](OC)C(=O)[C@H](C)C[C@H](C)/C=C/C=C/C=C/1C [everolimus]
objective response rate [4]: 5%

Compound: nivolumab: fully human IgG4 monoclonal antibody binding to the programmed cell death 1 (PD-1) receptor
objective response rate [4]: 25%
hazard ratio for death [4, 5]: decreased
incidence of Grade 3 or 4 treatment-related adverse events [4, 5]: lower
median overall survival [4, 5]: longer
